For series [1], the target named is T1, recombinant human CYP isozymes (Homo sapiens, UniProt P08684).
T1 construct: host or cells: Baculovirus-infected sf21 insect cells (microsomes)
The series can be described thus: metabolism by microsomes containing recombinant human CYP isozymes. As to conditions: parent to M-1 (N-dealkylation); M-1 to M-2 (oxidation); M-3 to M-4 (hydroxylation); M-2 to M-5 (conversion). It is filed as in vitro ADME. As to the method:
Hepatocytes were harvested from male Sprague-Dawley rat livers or human livers and cultured on a matrigel support and treated with 0.1 μM dexamethasone or 50 μM rifampicin, respectively, for 48 hr prior to the addition of the test compounds. A 2.5 mM stock solution of [^14C]2-(R)-(1-(R)-(3,5-bis(trifluoromethyl)-phenyl)ethoxy)-3-(S)-(4-fluoro)phenyl-4-(3-(5-oxo-1H,4H-1,2,4-triazolo)methylmorpholine, [^14C]M-1 or [^14C]M-2 in DMSO was added to the plates such that the final concentration of test compound was 25 μM and DMSO was 1% (v/v). The cultures were incubated for 4, 6 or 24 hr for rat hepatocytes and 48 hr for human hepatocytes. The incubation mixtures (500 μL) contained 10 μM of test compound, 100 mM phosphate buffer pH 7.4, NADPH-regenerating system, microsomes containing expressed CYP isoforms (CYP1A2, CYP2A6, CYP2B6, CYP2C8, CYP2C9, CYP2C19, CYP2D6, CYP2E1 or CYP3A4) and cytochrome P-450 reductase. The reactions were initiated by adding NADP and proceeded at 37° C. for 15-45 min. Acetonitrile extracts from microsomal and hepatocyte incubates were dissolved in 50% aqueous methanol and fractionated by HPLC. The separation was accomplished on a Zorbax RX C8 analytical column (5 μm, 4.6×250 mm). The mobile phase consisted of solvent A (10 mM ammonium acetate in water) and solvent B (7.3 mM ammonium acetate in 92.7% acetonitrile and 7.3% methanol. The column was eluted by a linear gradient from 35 to 80% B over 40 min at a flow rate of 1 mL/min. Fractions of major metabolites were subjected to LC-MS/MS analysis. Further purification was done using isocratic conditions prior to NMR analysis.
The incubation mixtures (500 μL) contained 10 or 25 μM of test compounds, 100 mM phosphate buffer pH 7.4, NADPH-regenerating system (5 mM glucose-6-phosphate, 1 mM NADP and 0.7 I.U/mL glucose 6-phosphate dehydrogenase), 0.5 to 2 mg/mL liver microsomal protein prepared from rats and humans or microsomes from Baculovirus-infected sf21 cells containing 20 to 200 pmol expressed CYP isoforms (CYP1A2, CYP2A6, CYP2B6, CYP2C8, CYP2C9, CYP2C19, CYP2D6, CYP2E1 or CYP3A4) and cytochrome P450 reductase. Stock solutions of the substrates in methanol were made such that final concentration of methanol in the reaction mixture was 3%. The reactions were initiated by adding 50 μL of 10 mM NADP and proceeded at 37° C. for 15-45 min. After incubation, the reactions were terminated by the addition of four volumes of acetonitrile. The suspensions were mixed vigorously and centrifuged at 3000×g for 5 min. The supernatants were dried and redissolved in 50% methanol for HPLC analysis using method A described below.

For another series, the target named is T2, human NK1 receptor (Homo sapiens, UniProt P25103).
T2 construct: expressed in transfected cells
The series can be described thus: human NK1 receptor binding assay (125I-substance P, COS or CHO cells). The procedure: To express the cloned human neurokinin-1 receptor (NKIR) transiently in COS, the cDNA for the human NKIR was cloned into the expression vector pCDM9 which was derived from pCDM8 (INVITROGEN) by inserting the ampicillin resistance gene (nucleotide 1973 to 2964 from BLUESCRIPT SK+) into the Sac II site. Transfection of 20 ug of the plasmid DNA into 10 million COS cells was achieved by electroporation in 800 ul of transfection buffer (135 mM NaCl, 1.2 mM CaCl2, 1.2 mM MgCl2, 2.4 mM K2HPO4, 0.6 mM KH2PO4, 10 mM glucose, 10 mM HEPES pH 7.4) at 260 V and 950 uF using the IBI GENEZAPPER (IBI, New Haven, Conn.). The cells were incubated in 10% fetal calf serum, 2 mM glutamine, 100U/ml penicillin-streptomycin, and 90% DMEM media (GIBCO, Grand Island, N.Y.) in 5% CO2 at 37° C. for three days before the binding assay.
To establish a stable cell line expressing the cloned human NK1R, the cDNA was subcloned into the vector pRcCMV (INVITROGEN). Transfection of 20 ug of the plasmid DNA into CHO cells was achieved by electroporation in 800 ul of transfection buffer suplemented with 0.625 mg/ml Herring sperm DNA at 300 V and 950 uF using the IBI GENEZAPPER (IBI). The transfected cells were incubated in CHO media [10 % fetal calf serum, 100 U/ml pennicilin-streptomycin, 2 mM glutamine, 1/500 hypoxanthine-thymidine (ATCC), 90% IMDM media (JRH BIOSClENCES, Lenexa, Kans.), 0.7 mg/ml G418 (GIBCO)] in 5% CO2 at 37° C. until colonies were visible. Each colony was separated and propagated. The cell clone with the highest number of human NK1R was selected for subsequent applications such as drug screening.
The binding assay of human NK1R expressed in either COS or CHO cells is based on the use of ^125I-substance P (^125I-SP, from DU PONT, Boston, Mass.) as a radioactively labeled ligand which competes with unlabeled substance P or any other ligand for binding to the human NK1R. Monolayer cell cultures of COS or CHO were dissociated by the non-enzymatic solution (SPECIALTY MEDIA, Lavallette, N.J.) and resuspended in appropriate volume of the binding buffer (50 mM Tris pH 7.5, 5 mM MnCl2, 150 mM NaCl, 0.04 mg/ml bacitracin, 0.004 mg/ml leupeptin, 0.2 mg/ml BSA, 0.01 mM phosphoramidon) such that 200 ul of the cell suspension would give rise to about 10,000 cpm of specific ^125I-SP binding (approximately 50,000 to 200,000 cells). […] The bound radioactivity was separated from unbound radioactivity by GF/C filter (BRANDEL, Gaithersburg, Md.) which was pre-wetted with 0.1 % polyethylenimine. The filter was washed with 3 ml of wash buffer (50 mM Tris pH 7.5, 5 mM MnCl2, 150 mM NaCl) three times and its radioactivity was determined by gamma counter.

Series [2] in a line: oxidative metabolism in liver microsomes from humans. In kind it is in vitro ADME. As to conditions: human liver microsomes, 45 min. As to the method: (§1) All liver microsomal and cytosolic fractions were prepared using the following procedure. Thawed livers were homogenized with 2 volumes of 50 mM Tris-buffer (pH 7.5) containing 1.15% KCl. For microsomal and cytosolic preparations, the homogenate was centrifuged for 20 min at 9,000×g and the resulting supernatant was centrifuged for 60 min at 105,000×g. The resulting cytosolic fractions were re-centrifuged at 105,000×g for 60 min. Fractions of cytosol were aliquoted into small tubes and stored at −70° C. Subsequently, the microsomal pellets were washed with 10 mM EDTA containing 1.15% KCl and were centrifuged at 105,000×g for 60 min. Washed microsomes were resuspended in 10 mM potassium phosphate buffer (pH 7.4) containing 250 mM sucrose, aliquoted into small tubes, and stored at −70° C. Protein concentrations were determined by a modified Lowry assay (Smith et al., 1985). The specific cytochrome P450 content in each microsomal preparation was measured as described by Omura and Sato, J. Biol. Chem. 239, 2370-2378 (1964). […]
(§2) Method A was conducted on a Shimadzu HPLC system (Shimadzu Scientific Instruments Inc., Columbia Md.). The parent compounds and their metabolites were monitored directly using a radiometric detector (INUS Systems Inc. Tampa, Fla.) and Ultima-Flow M (Packard Instrument Co., Meridan Conn.) as scintillant at a flow rate of 3 mL/min. […]

The nature of series [3]: oxidative metabolism in liver microsomes from rats. As to conditions: rat liver microsomes, 45 min. In kind it is in vitro ADME. As to the method: as §1, §2
(Liver microsomes are a subcellular fraction often used to study metabolism.)

Experimental findings from US6727244B2, “Mammalian metabolites of a tachykinin receptor antagonist” (Merck & Co., Inc., priority 2000, dated 2004) are described below.

T1 sequence (P08684 2-503 limits assumed): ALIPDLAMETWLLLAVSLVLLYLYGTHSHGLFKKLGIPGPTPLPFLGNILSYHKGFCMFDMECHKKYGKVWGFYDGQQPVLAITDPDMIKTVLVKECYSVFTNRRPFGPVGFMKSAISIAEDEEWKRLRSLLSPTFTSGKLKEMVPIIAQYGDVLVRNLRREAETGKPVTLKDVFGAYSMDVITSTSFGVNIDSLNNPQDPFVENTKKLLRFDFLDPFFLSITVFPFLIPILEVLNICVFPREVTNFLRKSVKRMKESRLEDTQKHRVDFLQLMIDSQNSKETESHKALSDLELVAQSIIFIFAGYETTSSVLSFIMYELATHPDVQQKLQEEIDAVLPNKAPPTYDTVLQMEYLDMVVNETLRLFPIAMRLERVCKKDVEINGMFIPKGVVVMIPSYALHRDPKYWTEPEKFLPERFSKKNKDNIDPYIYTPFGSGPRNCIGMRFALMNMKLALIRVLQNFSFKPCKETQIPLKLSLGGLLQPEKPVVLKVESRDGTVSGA
T2 sequence (P25103 whole entry): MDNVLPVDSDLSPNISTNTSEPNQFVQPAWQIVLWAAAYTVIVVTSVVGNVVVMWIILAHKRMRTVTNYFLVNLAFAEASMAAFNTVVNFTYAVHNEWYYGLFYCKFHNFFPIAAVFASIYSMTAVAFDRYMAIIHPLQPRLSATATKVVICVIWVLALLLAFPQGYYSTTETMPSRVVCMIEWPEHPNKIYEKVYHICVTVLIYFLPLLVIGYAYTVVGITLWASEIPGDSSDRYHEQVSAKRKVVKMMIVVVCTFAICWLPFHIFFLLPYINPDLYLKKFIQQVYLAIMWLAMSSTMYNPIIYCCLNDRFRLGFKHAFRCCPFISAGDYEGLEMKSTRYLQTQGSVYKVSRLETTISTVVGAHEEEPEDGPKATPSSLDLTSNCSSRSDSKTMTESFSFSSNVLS

With `C[C@@H](O[C@H]1OCCN=C1c1ccc(F)cc1)c1cc(C(F)(F)F)cc(C(F)(F)F)c1` [Metabolite M-2, (2R)-2-[(1R)-1-[3,5-bis(trifluoromethyl)phenyl]ethoxy]-3-(4-fluorophenyl)-5,6-dihydro-2H-1,4-oxazine], the “CYP isozyme primarily responsible for the metabolic step” value (from here on “CYP isozyme primarily responsible”) in series [1] is on record as “CYP3A4”. For the same compound, the half-maximal inhibitory concentration (IC50) (usually the concentration that gives 50% inhibition) at human NK1 receptor was ~10 nM.

Take `C[C@@H](O[C@H]1OCC(=O)N[C@H]1c1ccc(F)cc1)c1cc(C(F)(F)F)cc(C(F)(F)F)c1` [Metabolite M-3, (5S,6R)-6-[(1R)-1-[3,5-bis(trifluoromethyl)phenyl]ethoxy]-5-(4-fluorophenyl)-3-morpholinone]: the “CYP isozyme primarily responsible” value in series [1] was “CYP3A4”. At human NK1 receptor, this compound registered an IC50 of 4 nM.

As to `C[C@@H](O[C@@H](OCC(=O)O)C(O)c1ccc(F)cc1)c1cc(C(F)(F)F)cc(C(F)(F)F)c1` (stereo partly drawn) [Metabolite M-6, [(1R)-1-[(1R)-1-[3,5-bis(trifluoromethyl)phenyl]ethoxy]-2-(4-fluorophenyl)-2-hydroxyethoxy]acetic acid], the half-maximal inhibitory concentration (IC50) on human NK1 receptor turned out to be 18 nM.

Consider `C[C@@H](O[C@H]1OCCN(Cc2n[nH]c(=O)[nH]2)[C@H]1c1ccc(F)cc1)c1cc(C(F)(F)F)cc(C(F)(F)F)c1` [Parent Compound, 5-[[(2R,3S)-2-[(1R)-1-[3,5-bis(trifluoromethyl)phenyl]ethoxy]-3-(4-fluorophenyl)4-morpholinyl]methyl]-1,2-dihydro-3H-1,2,4-triazol-3-one, reference compound], for which the “conversion in microsomes in the presence of an NADPH regenerating system” value in series [2] and in series [3] was < 2% throughout. In addition, in series [1], the “CYP isozyme primarily responsible” value is “CYP3A4”.
